Entries after “also recorded” stand apart in the source; their conditions may differ.
What was measured:
Type in all cases: cell-based
[1] = tested on: NG4TL4-wild type cells; test: cellular uptake experiment of [^123I]-IaraU in NG4TL4-wild type cells
Experimental: (§1) Please refer to FIG. 3 which is a schematic view of experimental results of cell absorption of [^123I]-IaraU according to the invention. As shown, the present invention utilizes the above synthesized iodine-123 marker FLT analogue for in vitro experiments which totally use cells of NG4TL4-wild type, NG4TL4-HSVtk, NG4TL4-sr39tk. They are cultivated in the DMEM (Dulbecco's Modified Eagle's Medium) medium containing 10% fetal bovine serum at 37° C. and in the environment having 5% carbon dioxide. Then they are planted in 96-well plate at the proportion of 1×10^5 cells/well for 12 hours, and then subjected to biological experiments.
(§2) Before the cellular uptake experiment starts, 1 mCi of the above [^123I]-IaraU 8 or [^18F]-FLT (from INER) is thoroughly mixed with 50 ml of serum-free DMEM medium. The cultivated medium on the 96-well plate is drained out, and the aforementioned cultivated medium mixed with radioactive material is immediately added material with the ratio of 200 μl/well. The cells to which the cultivated medium has been added are placed back to an incubator of 5% CO2 at 37° C. […] Finally, a Gamma-Counter is used to measure the radioactivity of cytoplasm for each individual supernatant. The formula for analysis is as follows: (Radioactivity of cytoplasm/Activity as whole)×100%.

[2] = tested on: NG4TL4-HSVtk cells; test: cellular uptake experiment of [^123I]-IaraU in NG4TL4-HSVtk cells
Experimental: as §1, §2

[3] = tested on: NG4TL4-sr39tk cells; test: cellular uptake experiment of [^123I]-IaraU in NG4TL4-sr39tk cells
Experimental: as §1, §2

[4] = after five hours, % of the total amount
[5] = time points 0.25, 0.5, 1.5, 3 and 5 hours

Question: Which “maximum intake (radioactivity of cytoplasm/activity as whole ×100%)” value [1, 4] does the source give for `O=c1[nH]c(=O)n([C@@H]2O[C@H](CO)C(O)C2O)cc1[123I]` (stereo partly drawn) [[^123I]-IaraU, 1-(β-D-arabinofuranosyl)-5-[^123I]iodopyrimidin-2,4(3H)-dione] here?
Answer: The value was “not more than 10%”.

Question: And the “cellular uptake over time (in words)” value [1, 5]?
Answer: The value was “no significant intake; also recorded: no significant increase in quantity”.

Question: And the “maximum intake (radioactivity of cytoplasm/activity as whole ×100%)” value [2, 4]?
Answer: The value was “not more than 10%”.

Question: And the “cellular uptake over time (in words)” value [2, 5]?
Answer: The value was “no significant intake; also recorded: no significant increase in quantity”.

Question: What about the “maximum intake (radioactivity of cytoplasm/activity as whole ×100%)” value [3, 4] of the same compound?
Answer: Its value is “not more than 10%”.

Question: What about the “cellular uptake over time (in words)” value [3, 5] of the same compound?
Answer: Its value is “no significant intake; also recorded: no significant increase in quantity”.

From patent US8691789B2, “Probe of iodine-123 marker thymidine (FLT)analogue [123I]-IaraU” (Atomic Energy Council-Institute of Nuclear Research, priority 2012, dated 2014)
